Measured values reported in BindingDB's records for doi:10.1016/j.bmcl.2007.11.067 (Bristol-Myers Squibb, 2008).

Test: Antagonist activity at human CCR3 receptor in human eosinophil assessed as inhibition of eotaxin-induced chemotaxis

| IC50 [nM] | Structure (SMILES) |
| --- | --- |
| 0.2 | C[C@H](CC(=O)N1CCC[C@@H](Cc2ccc(F)cc2)C1)NC(=O)Nc1cccc(-c2nnnn2C)c1 |
| 0.1 | C[C@H](CCN1CCC[C@@H](Cc2ccc(F)cc2)C1)NC(=O)Nc1cc(-n2cccn2)cc(-n2cccn2)c1 |
| 60 | CC(=O)c1cc(NC(=O)N[C@@H](C)CCN2CCC[C@@H](Cc3ccc(F)cc3)C2)cc(C(C)=O)c1 |
| 0.02 | CCc1cc(NC(=O)N[C@H](C)CCN2CCC[C@@H](Cc3ccc(F)cc3)C2)cc(-c2nnnn2C)c1 |
| 1.1 | C[C@H](CCN1CCC[C@@H](Cc2ccc(F)cc2)C1)NC(=O)Nc1cccc(-c2nnnn2C)c1 |
| 5 | O=C(NCCCN1CCC[C@@H](Cc2ccc(F)cc2)C1)Nc1cc(-n2cccn2)cc(-n2cccn2)c1 |
| 0.3 | CC(C)c1cc(NC(=O)NCCCN2CCC[C@@H](Cc3ccc(F)cc3)C2)cc(-c2nnnn2C)c1 |
| 0.021 | CC(C)c1cc(NC(=O)N[C@H](C)CCN2CCC[C@@H](Cc3ccc(F)cc3)C2)cc(-c2nnnn2C)c1 |
| > 1 | C[C@@H](CCN1CCC[C@@H](Cc2ccc(F)cc2)C1)NC(=O)Nc1cccc(-c2nnnn2C)c1 |
| 0.011 | CCC[C@H](CCN1CCC[C@@H](Cc2ccc(F)cc2)C1)NC(=O)Nc1cc(-c2nnnn2C)cc(C(C)(C)O)c1 |
| 0.1 | CC[C@H](CCN1CCC[C@@H](Cc2ccc(F)cc2)C1)NC(=O)Nc1cc(-c2nnnn2C)cc(C(C)(C)O)c1 |
| 0.02 | CC(=O)c1cc(NC(=O)N[C@H](C)CCN2CCC[C@@H](Cc3ccc(F)cc3)C2)cc(-c2nnnn2C)c1 |
| 0.2 | CC(=O)c1cc(NC(=O)N[C@H](C)CCN2CCC[C@@H](Cc3ccc(F)cc3)C2)cc(C(C)=O)c1 |
| 25 | CC(=O)c1cccc(NC(=O)NCCCN2CCC[C@@H](Cc3ccc(F)cc3)C2)c1 [1-(3-Acetyl-phenyl)-3-{3-[(S)-3-(4-fluoro-benzyl)-piperidin-1-yl]-propyl}-urea] |
| 3.2 | Cn1nnnc1-c1cccc(NC(=O)NCCCN2CCC[C@@H](Cc3ccc(F)cc3)C2)c1 [1-{3-[(S)-3-(4-Fluoro-benzyl)-piperidin-1-yl]-propyl}-3-[3-(1-methyl-1H-tetrazol-5-yl)-phenyl]-urea] |
| 1 | Cc1cc(NC(=O)NCCCN2CCC[C@@H](Cc3ccc(F)cc3)C2)cc(-c2nnnn2C)c1 [1-{3-[(S)-3-(4-Fluoro-benzyl)-piperidin-1-yl]-propyl}-3-[3-methyl-5-(1-methyl-1H-tetrazol-5-yl)-phenyl]-urea] |
| 0.04 | C[C@@H](NC(=O)Nc1cccc(-c2nnnn2C)c1)[C@@H](O)CN1CCC[C@@H](Cc2ccc(F)cc2)C1 [1-{(1R,2S)-3-[(S)-3-(4-Fluoro-benzyl)-piperidin-1-yl]-2-hydroxy-1-methyl-propyl}-3-[3-(1-methyl-1H-tetrazol-5-yl)-phenyl]-urea] |
| 3 | CC(=O)c1cc(NC(=O)NCCCN2CCC[C@@H](Cc3ccc(F)cc3)C2)cc(C(C)=O)c1 [(S)-1-(3-(3-(4-fluorobenzyl)piperidin-1-yl)propyl)-3-(3,5-diacetylphenyl)urea] |

Test: Antagonist activity at CCR3 receptor in mouse eosinophil assessed as as inhibition of chemotaxis

| IC50 [nM] | Structure (SMILES) |
| --- | --- |
| 870 | C[C@@H](NC(=O)Nc1cccc(-c2nnnn2C)c1)[C@@H](O)CN1CCC[C@@H](Cc2ccc(F)cc2)C1 [1-{(1R,2S)-3-[(S)-3-(4-Fluoro-benzyl)-piperidin-1-yl]-2-hydroxy-1-methyl-propyl}-3-[3-(1-methyl-1H-tetrazol-5-yl)-phenyl]-urea] |

Test: Antagonist activity at CCR3 receptor in cynomolgus monkey eosinophil assessed as as inhibition of chemotaxis

| IC50 [nM] | Structure (SMILES) |
| --- | --- |
| 0.15 | C[C@@H](NC(=O)Nc1cccc(-c2nnnn2C)c1)[C@@H](O)CN1CCC[C@@H](Cc2ccc(F)cc2)C1 [1-{(1R,2S)-3-[(S)-3-(4-Fluoro-benzyl)-piperidin-1-yl]-2-hydroxy-1-methyl-propyl}-3-[3-(1-methyl-1H-tetrazol-5-yl)-phenyl]-urea] |
